Data: patent US20240051965A1, “OXYGEN-CONTAINING HETEROCYCLIC COMPOUND AND USE THEREOF” (Icahn School of Medicine at Mount Sinai, priority 2022, published 2024)

System: TGF/SMAD Signaling Pathway SBE Reporter-HEK293 Cell Line
Test: Luciferase screen, TGF/SMAD Signaling Pathway SBE Reporter-HEK293 cells stimulated with TGFβ
Format: cell-based
Conditions: compound 4 hours before TGFβ 10 ng/mL, incubated overnight (18 hours), luminescence
Method: For the data in Table 1, the Bight-Glo™ Luciferase Assay System from Promega was used with TGF/SMAD Signaling Pathway SBE Reporter-HEK293 Cell Line from BPSbioscience. On day 1 SBE reporter-HEK293 cells were seeded at a density of 25,000 cells per well into a white clear-bottom 96-well microplate in 100 μL of growth medium without geneticin. The plate was incubated at 37° C. in a CO2 incubator for 24 hrs. The wells were renewed with 60 μL assay medium and treated with test compounds by adding 5 μL of compounds in medium. The concentration of test compound in medium is adjusted so that 5 μL will provide the desired molarity of the solution. After 4 hours, TGFβ was added to 10 ng/mL. The plate was incubated at 37° C. in a CO2 incubator overnight (18 hours). One hour prior to assay all medium was replaced. The luciferase assay was run using ONE-Step™ Luciferase Assay System by adding 100 μL of ONE-Step™ Luciferase reagent per well, rocking at room temperature for ˜15 to 30 minutes and measuring luminescence using a luminometer. The signals were normalized to percentage inhibition, with non-TGF treated cells as 100% inhibition, and the data were processed by Graphpad Prism.
The symbol “***” indicates IC50<100 nM, “**” indicates IC50≥100 nM but <10 μM, “*” indicates IC50≥10 μM.

Row | Compound | IC50
1 | O[C@H]1Cc2cc(-c3nc(-c4ccc(Cl)cc4)no3)cnc2OC12CCC2 [Compound 1] | 0.1 to 10 µM
2 | O[C@@H]1Cc2cc(-c3nc(-c4ccc(Cl)cc4)no3)cnc2OC12CCC2 [Compound 2] | < 0.1 µM
3 | O[C@H]1Cc2cc(-c3nc(-c4ccc(Cl)cc4)no3)cnc2OC12CCCC2 [Compound 3] | ≥ 10 µM
4 | O[C@H]1Cc2cc(-c3nc(-c4ccc(Cl)c(F)c4)no3)cnc2OC12CCC2 [Compound 4] | ≥ 10 µM
5 | Cc1ccc(-c2noc(-c3cnc4c(c3)C[C@H](O)C3(CCC3)O4)n2)cc1 [Compound 5] | ≥ 10 µM
6 | Cn1ccc(-c2noc(-c3cnc4c(c3)C[C@H](O)C3(CCC3)O4)n2)n1 [Compound 6] | ≥ 10 µM
7 | O[C@H]1Cc2cc(-c3nnc(-c4ccc(Cl)cc4)o3)cnc2OC12CCC2 [Compound 7] | 0.1 to 10 µM
8 | O[C@H]1Cc2cc(-c3noc(-c4ccc(Cl)cc4)n3)cnc2OC12CCC2 [Compound 8] | ≥ 10 µM
9 | [2H]C([2H])([2H])C1(C([2H])([2H])[2H])Oc2ncc(-c3nc(-c4ccc(Cl)cc4)no3)cc2C[C@@H]1O [Compound 9] | < 0.1 µM
